Data from US5409937A, “Hexahydrofuro(2,3-b)furans as PAF antagonists” (British Biotech Pharmaceuticals Limited, priority 1991, dated 1995).

Target: T1, PAF receptor (Homo sapiens, UniProt P25105)
T1 construct: washed human platelet membranes; from tissue; host or cells: human platelets (platelet concentrates from a hospital blood bank), lysed washed membranes
Assay: Inhibition of [^3 H]-PAF binding to washed human platelet membranes
Conditions: 0.5 nM [^3 H]-PAF, 1 hour at 0° C., pH 7.0, 0.25% BSA
Procedure: Inhibition of [^3 H]-PAF binding to washed human platelet membranes
In common with the compounds of the invention (general formula I) those of Examples 1-13 it PAF-induced functions at both cellular and tissue levels by inhibition of PAF binding to its specific receptor site. The inhibition of [^3 H]-PAF binding to washed human platelet membranes by representative compounds was determined by isotopic labelling and filtration techniques. Platelet concentrates were obtained from a hospital blood bank. These platelet concentrates (500-2500 ml.) were centrifuged at 800 rpm for 10 minutes in a SORVALL RC3B centrifuge to remove the red blood cells present. (The word SORVALL is a trade mark.) The supenatant was subsequently centrifuged at 3,000 rpm in a SORVALL RC3B centrifuge to pellet the platelets present. The platelet rich pellets were resuspended in a minimum volume of buffer (150 mM NaCl, 10 mM Tris, 2 mM EDTA, pH 7.5) and layered onto Ficoll-Paque gradients, 9 ml platelet concentrate to 2 ml Ficoll, and centrifuged at 1,900 rpm for 15 minutes in a SORVALL RT6000 centrifuge. This step removes the residual red blood cells and other nonspecific material such as lymphocytes from the preparation. The platelets which form a band between the plasma and the Ficoll were removed, resuspended in the above buffer and centrifuged at 3,000 rpm for 10 minutes in a SORVALL RT6000 centrifuge. […]
The assay was conducted by preparing a series of Tris-buffered solutions of the selected antagonist of predetermined concentrations. […] Each washed residue was dried under vacuum on a sampling manifold and placed into vials containing 20 ml of OPTIPHASE MP scintillation fluid and the radioactivity counted in a liquid scintillation counter. (The word OPTIPHASE is a trade mark.) Defining the counts for total binding with antagonist from a test sample as "TBA"; the counts for total binding from the control sample C1 as "TB"; and the counts for nonspecific binding from the control sample C2 as "NSB", the percent inhibition of each test antagonist can be determined by the following equation: […]

T1 sequence (P25105 whole entry): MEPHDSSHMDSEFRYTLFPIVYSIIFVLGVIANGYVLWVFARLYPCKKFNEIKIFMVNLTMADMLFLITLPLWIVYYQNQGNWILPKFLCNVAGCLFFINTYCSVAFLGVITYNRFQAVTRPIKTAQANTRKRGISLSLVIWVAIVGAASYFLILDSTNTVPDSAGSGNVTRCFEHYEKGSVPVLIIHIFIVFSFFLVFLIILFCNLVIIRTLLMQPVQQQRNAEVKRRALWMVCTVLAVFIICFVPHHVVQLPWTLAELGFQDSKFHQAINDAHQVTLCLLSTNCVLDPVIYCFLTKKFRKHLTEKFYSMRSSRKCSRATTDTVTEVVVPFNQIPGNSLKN

For `Cc1nc2ccccc2n1C[C@H]1C[C@@H]2C[C@@H](c3ccc(F)cc3)O[C@@H]2O1` (relative stereo) [1(d), (2R*, 3aS*, 5S*, 6aR*)-5-(4-Fluorophenyl)-2-(1H-2-methylbenzimidazol-1-ylmethyl)hexahydrofuro[2,3-b]furan], the IC50 was 8000 nM.
Compound `Cc1nc2cnccc2n1C[C@H]1C[C@@H]2C[C@@H](c3ccc(F)cc3)O[C@@H]2O1` (relative stereo) [Example 2, 5-(4-Fluorophenyl)-2-(1H-2-methylimidazo[4,5-c]pyrid-1-ylmethyl)hexahydrofuro[2,3-b]furan] has an IC50 of 240 nM.
In the case of `Cc1nc2ccccc2n1C[C@H]1C[C@@H]2C[C@H](c3ccc(F)cc3)O[C@@H]2O1` (relative stereo) [1(e), (2R*, 3aS*, 5R*, 6aR*)-5-(4-fluorophenyl)-2-(1H-2-methylbenzimidazol-1-ylmethyl)hexahydrofuro[2,3-b]furan], the IC50 is reported as 450 nM.
